Values joined by “and” are separate entries in the source; they are usually repeats but may differ in a detail not shown here. Identical values can stand only once. Inconclusive results and toxic doses are left out. Rule as the data show it: active = T/C of 150% or more; inactive = T/C below 125%.
Tested on: L1210 leukemia ip in BDF1 mice, survival T/C
Assay: NCI In Vivo Anticancer Drug Screen. Data for tumor model L1210 Leukemia (intraperitoneal) in B6D2F1 (BDF1) mice
Conditions: endpoint: mean survival time, higher = longer survival
Procedure, shortened: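 Transplantable tumor model; survival measured in treated vs vehicle control mice. Value = treated/control.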

[1] = dose: 50.0 mg/kg/injection, schedule: Q01DX001 (ip), vehicle: saline
[2] = dose: 100.0 mg/kg/injection, schedule: Q01DX001 (ip), vehicle: saline
[3] = dose: 200.0 mg/kg/injection, schedule: Q01DX001 (ip), vehicle: saline
[4] = dose: 400.0 mg/kg/injection, schedule: Q01DX001 (ip), vehicle: saline
[5] = dose: 100.0 mg/kg/injection, schedule: Q04DX003 (ip), vehicle: Klucel (hydroxypropylcellulose) (HPC)
[6] = dose: 200.0 mg/kg/injection, schedule: Q04DX003 (ip), vehicle: Klucel (hydroxypropylcellulose) (HPC)
[7] = dose: 400.0 mg/kg/injection, schedule: Q04DX003 (ip), vehicle: Klucel (hydroxypropylcellulose) (HPC)
[8] = dose: 100.0 mg/kg/injection, schedule: Q04DX003 (ip), vehicle: saline
[9] = dose: 200.0 mg/kg/injection, schedule: Q04DX003 (ip), vehicle: saline
[10] = dose: 400.0 mg/kg/injection, schedule: Q04DX003 (ip), vehicle: saline
[11] = dose: 100.0 mg/kg/injection, schedule: Q01DX009 (ip), vehicle: saline
[12] = dose: 200.0 mg/kg/injection, schedule: Q01DX009 (ip), vehicle: saline
[13] = dose: 50.0 mg/kg/injection, schedule: Q01DX009 (ip), vehicle: saline with Tween-80
[14] = dose: 100.0 mg/kg/injection, schedule: Q01DX009 (ip), vehicle: saline with Tween-80

Measured: T/C

O=C(O)C1OC1(c1ccccc1Cl)c1ccccc1Cl (stereo unspecified)
inactive: [1] 101 % of control | [2] 95 % of control | [3] 98 % of control | [4] 104 % of control

C#CCn1cnc2c(Cl)ncnc21
inactive: [2] 117 % of control | [3] 97 % of control | [4] 103 % of control

O=C(COc1ccc([N+](=O)[O-])cc1Cl)Nc1cccc(S(=O)(=O)F)c1
inactive: [5] 98 % of control | [6] 106 % of control | [7] 91 % of control

CNC(=O)C1C(c2ccccc2)C1c1ccc(C)cc1 (stereo unspecified)
inactive: dose: 100.0 mg/kg/injection, schedule: Q04DX002 (ip), vehicle: Klucel (hydroxypropylcellulose) (HPC) 88 % of control | dose: 200.0 mg/kg/injection, schedule: Q04DX002 (ip), vehicle: Klucel (hydroxypropylcellulose) (HPC) 92 % of control | dose: 400.0 mg/kg/injection, schedule: Q04DX002 (ip), vehicle: Klucel (hydroxypropylcellulose) (HPC) 103 % of control

CCOC(=O)c1c(C)c(C(=O)CC)c(C)n1C(=O)c1ccccc1
inactive: [2] 100 % of control | [3] 102 % of control | [4] 96 % of control

COc1cc(N)ccc1/C=C/C(=O)O
inactive: [8] 97 % of control | [9] 98 % of control | [10] 92 % of control

C=C(C)C1CNC(C(=O)O)C1CC(=O)O (stereo unspecified)
inactive: dose: 6.25 mg/kg/injection, schedule: Q01DX009 (ip), vehicle: saline sonified 102 % of control | dose: 12.5 mg/kg/injection, schedule: Q01DX009 (ip), vehicle: saline sonified 86 % of control

N#CCC(O)(c1ccccc1)c1ccccc1
inactive: [1] 102 % of control | [2] 98 % of control | [3] 98 % of control | [4] 104 % of control

COc1cc(C=Nc2ccc(-c3nc(C)sc3C)cc2)ccc1N(CCOS(C)(=O)=O)CCOS(C)(=O)=O
inactive: dose: 50.0 mg/kg/injection, schedule: Q01DX009 (ip), vehicle: saline 111 % of control | [2] 110 % of control | [11] 121 % of control | [3] 105 % of control | [12] 116 % of control

CCCCCCC[CH2][Sn]1([CH2]CCCCCCC)[O]OC(c2ccccc2)[O]1 (stereo unspecified)
inactive: dose: 6.25 mg/kg/injection, schedule: Q04DX002 (ip), vehicle: saline with Tween-80 102 % of control | dose: 12.5 mg/kg/injection, schedule: Q04DX002 (ip), vehicle: saline with Tween-80 98 % of control | dose: 25.0 mg/kg/injection, schedule: Q04DX002 (ip), vehicle: saline with Tween-80 91 % of control

CN(N(P(c1ccccc1)c1ccccc1)P(c1ccccc1)c1ccccc1)P(c1ccccc1)c1ccccc1
inactive: dose: 100.0 mg/kg/injection, schedule: Q01DX001 (ip), vehicle: steriod suspending solution 110 % of control | dose: 400.0 mg/kg/injection, schedule: Q01DX001 (ip), vehicle: steriod suspending solution 94 % of control

CC1CCC2C(CCC3CCCCC32)C1 (stereo unspecified)
inactive: [2] 107 % of control | [3] 107 % of control

CSc1c(C(N)=O)c2c(N)ncnc2n1C1OC(CO)C(O)C1O (stereo unspecified)
inactive: [2] 114 % of control | [3] 121 % of control | [4] 121 % of control

O=[N+]([O-])c1ccc(OCc2ccc(Cl)c(S(=O)(=O)F)c2)c(Cl)c1
inactive: dose: 100.0 mg/kg/injection, schedule: Q01DX001 (ip), vehicle: gum acacia 102 % of control | dose: 200.0 mg/kg/injection, schedule: Q01DX001 (ip), vehicle: gum acacia 102 % of control | dose: 400.0 mg/kg/injection, schedule: Q01DX001 (ip), vehicle: gum acacia 98 % of control

OC1OC(CF)C(O)C(O)C1O (stereo unspecified)
inactive: [8] 104 % of control | [9] 115 % of control | [10] 118 % of control

O=S(=O)(C/C=C/CC(Cl)(Cl)Cl)C/C=C/CC(Cl)(Cl)Cl
inactive: dose: 100.0 mg/kg/injection, schedule: Q01DX001 (ip), vehicle: acetone 95 % of control | [11] 90 % of control | dose: 100.0 mg/kg/injection, schedule: Q04DX003 (ip), vehicle: acetone 97 % of control | dose: 200.0 mg/kg/injection, schedule: Q01DX001 (ip), vehicle: acetone 94 % of control | [12] 93 % of control | dose: 200.0 mg/kg/injection, schedule: Q04DX003 (ip), vehicle: acetone 95 % of control | dose: 400.0 mg/kg/injection, schedule: Q01DX001 (ip), vehicle: acetone 89 % of control | dose: 400.0 mg/kg/injection, schedule: Q01DX009 (ip), vehicle: saline 92 % of control | dose: 400.0 mg/kg/injection, schedule: Q04DX003 (ip), vehicle: acetone 95 % of control

CCCCCCCCC(=O)Nc1nc2c(ncn2C2OC(COC(C)=O)C(OC(C)=O)C2OC(C)=O)c(=O)[nH]1 (stereo unspecified)
inactive: dose: 100.0 mg/kg/injection, schedule: Q01DX005 (ip), vehicle: saline 92 % of control and 97 % of control | dose: 200.0 mg/kg/injection, schedule: Q01DX005 (ip), vehicle: saline 111 % of control and 97 % of control

CC(C)=N/N=C(/C(=O)c1ccccc1)c1ccccc1
inactive: [2] 109 % of control | [3] 109 % of control | [4] 97 % of control

CCCCC=C1CC(C)CC(C)C1 (stereo unspecified)
inactive: [13] 93 % of control | [14] 93 % of control

O=C(c1ccccc1)c1c(-c2ccccc2)c(C(=O)c2ccccc2)c2ccccc2c1Cl
inactive: dose: 6.25 mg/kg/injection, schedule: Q01DX009 (ip), vehicle: water 96 % of control | dose: 12.5 mg/kg/injection, schedule: Q01DX009 (ip), vehicle: water 97 % of control | dose: 25.0 mg/kg/injection, schedule: Q01DX009 (ip), vehicle: water 94 % of control and 117 % of control | dose: 50.0 mg/kg/injection, schedule: Q01DX009 (ip), vehicle: water 94 % of control and 97 % of control | dose: 100.0 mg/kg/injection, schedule: Q01DX009 (ip), vehicle: water 101 % of control | dose: 200.0 mg/kg/injection, schedule: Q01DX009 (ip), vehicle: water 101 % of control | dose: 400.0 mg/kg/injection, schedule: Q01DX009 (ip), vehicle: water 97 % of control

CS(=O)(=O)CCS(=O)(=O)c1cccs1
inactive: dose: 50.0 mg/kg/injection, schedule: Q01DX009 (ip), vehicle: Klucel (hydroxypropylcellulose) (HPC) 103 % of control | dose: 100.0 mg/kg/injection, schedule: Q01DX009 (ip), vehicle: Klucel (hydroxypropylcellulose) (HPC) 102 % of control | [5] 110 % of control | [6] 112 % of control | [7] 111 % of control

O=C(OCCO)c1ccccc1
inactive: [14] 97 % of control | [8] 106 % of control | dose: 200.0 mg/kg/injection, schedule: Q01DX009 (ip), vehicle: saline with Tween-80 97 % of control | [9] 95 % of control | dose: 400.0 mg/kg/injection, schedule: Q01DX009 (ip), vehicle: saline with Tween-80 95 % of control | [10] 97 % of control

CCOC(=O)C(c1ccsc1)C(C(=O)OCC)c1cccs1 (stereo unspecified)
inactive: dose: 100.0 mg/kg/injection, schedule: Q01DX001 (ip), vehicle: saline with Tween-80 92 % of control | dose: 200.0 mg/kg/injection, schedule: Q01DX001 (ip), vehicle: saline with Tween-80 98 % of control | dose: 400.0 mg/kg/injection, schedule: Q01DX001 (ip), vehicle: saline with Tween-80 92 % of control

O=C1c2cc(Br)ccc2-c2c(N=Cc3ccc4c(c3)OCO4)cc(Br)cc21
inactive: dose: 100.0 mg/kg/injection, schedule: Q01DX001 (ip), vehicle: other 95 % of control | dose: 200.0 mg/kg/injection, schedule: Q01DX001 (ip), vehicle: other 103 % of control | dose: 400.0 mg/kg/injection, schedule: Q01DX001 (ip), vehicle: other 106 % of control

COc1ccc(S(=O)(=O)O)cc1NC(=O)CC(=O)c1cccc([N+](=O)[O-])c1
inactive: [2] 97 % of control | [3] 95 % of control | [4] 100 % of control

O=C(Oc1ccc(Br)cc1)c1cc([N+](=O)[O-])ccc1O
inactive: [2] 98 % of control | [3] 104 % of control | [4] 103 % of control

O=C(NCCCl)NC1C2CC3CC(C2)CC1C3 (stereo unspecified)
inactive: dose: 75.0 mg/kg/injection, schedule: Q01DX001 (ip), vehicle: other 93 % of control | dose: 150.0 mg/kg/injection, schedule: Q01DX001 (ip), vehicle: other 89 % of control | dose: 300.0 mg/kg/injection, schedule: Q01DX001 (ip), vehicle: other 89 % of control

COC1COC(OC)C(OS(C)(=O)=O)C1OC (stereo unspecified)
inactive: dose: 100.0 mg/kg/injection, schedule: Q01DX001 (ip), vehicle: carboxymethylcellulose (CMC) 106 % of control | dose: 200.0 mg/kg/injection, schedule: Q01DX001 (ip), vehicle: carboxymethylcellulose (CMC) 98 % of control | dose: 400.0 mg/kg/injection, schedule: Q01DX001 (ip), vehicle: carboxymethylcellulose (CMC) 101 % of control

C(=Nc1ccc(-c2ccccc2)cc1)c1ccccc1
inactive: dose: 25.0 mg/kg/injection, schedule: Q01DX009 (ip), vehicle: saline with Tween-80 105 % of control | [13] 97 % of control | [14] 92 % of control

From PubChem BioAssay AID248 (DTP/NCI, 2004)
